Data reported in PMC10754035 (Cancer Research Communications, 2023).

Target: T1, KRAS G12V (Homo sapiens, UniProt P01116, G12V)
T1 construct: Human His-tagged KRAS4B (1-169) G12D, G12V and G12C were custom synthesized; 6His (pET-28a(+)-TEV vector) (N); host or cells: E. coli BL21 star (DE3)
Assay: Isothermal titration calorimetry, KRAS G12V
Format: binding
Settings: ITC, KRAS G12V-NE
Method: All isothermal titration calorimetry (ITC) experiments were carried out at 25°C on a MicroCal PEAQ ITC Automated (Malvern). […] The final ITC buffer in the syringe and the cell was 25 mmol/L Tris HCl (pH 8.0), 100 mmol/L NaCl, 0.1 mmol/L DTT, 5% glycerol, 1% NP40, 5 mmol/L MgCl2, and 5% DMSO. ITC titration experiments were carried out with 19 injections, 2 µL per injection, and 150 seconds spacing between each injection. Reference cell power was set to 5 µcal/second and stirring speed was 750 rpm. Data were analyzed using a one site binding model with the Malvern analysis software. All ITC experiments were performed at the biophysical facility at the Institute for Structural Biology, Drug Discovery and Development (ISB3D) at Virginia Commonwealth University (Richmond, VA) and the Massey Cancer Center.
Expression and purification of RAS proteins: Human His-tagged KRAS4B (1-169) G12D, G12V and G12C were custom synthesized and cloned into pET-28a(+)-TEV vector to generate pET-28a(+)-6His-KRAS (1-169) plasmids by GenScript USA Inc., Piscataway, NJ. The proteins were expressed and purified as described below. […]

T1 sequence (P01116 1-169 isoform P01116-2 G12V): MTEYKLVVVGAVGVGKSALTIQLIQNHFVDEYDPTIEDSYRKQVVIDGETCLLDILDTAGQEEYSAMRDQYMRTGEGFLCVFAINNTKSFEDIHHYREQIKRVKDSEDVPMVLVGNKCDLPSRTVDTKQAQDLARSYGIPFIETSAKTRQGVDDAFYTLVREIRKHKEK

Work on COC(=O)C1C2C3(C)C(=O)C=CC2(OC3=O)C2CCC3(CBr)CC12CC3=O (stereo not shown) [KRB-456] yielded a Kd of 392 nM.
